Laboratory results as given in ChEMBL document CHEMBL1143513, “Structure-activity relationships for 2-anilino-6-phenylpyrido[2,3-d]pyrimidin-7(8H)-ones as inhibitors of the cellular checkpoint kinase Wee1” (Bioorg Med Chem Lett, 2005).

How the values were obtained:
[1] = Inhibition of c-Src tyrosine kinase
Wee1-like protein kinase = Wee1-like protein kinase (Homo sapiens, UniProt P30291); assay: Inhibition of checkpoint kinase Wee1
[2] = Inhibition of Platelet-derived growth factor receptor
[3] = biological target: Fibroblast growth factor receptor (Homo sapiens, UniProt P22607+P11362+P22455+P21802); assay: Inhibition of Fibroblast growth factor receptor; assay type: protein assay

Wee1-like protein kinase, sequence (P30291 whole entry): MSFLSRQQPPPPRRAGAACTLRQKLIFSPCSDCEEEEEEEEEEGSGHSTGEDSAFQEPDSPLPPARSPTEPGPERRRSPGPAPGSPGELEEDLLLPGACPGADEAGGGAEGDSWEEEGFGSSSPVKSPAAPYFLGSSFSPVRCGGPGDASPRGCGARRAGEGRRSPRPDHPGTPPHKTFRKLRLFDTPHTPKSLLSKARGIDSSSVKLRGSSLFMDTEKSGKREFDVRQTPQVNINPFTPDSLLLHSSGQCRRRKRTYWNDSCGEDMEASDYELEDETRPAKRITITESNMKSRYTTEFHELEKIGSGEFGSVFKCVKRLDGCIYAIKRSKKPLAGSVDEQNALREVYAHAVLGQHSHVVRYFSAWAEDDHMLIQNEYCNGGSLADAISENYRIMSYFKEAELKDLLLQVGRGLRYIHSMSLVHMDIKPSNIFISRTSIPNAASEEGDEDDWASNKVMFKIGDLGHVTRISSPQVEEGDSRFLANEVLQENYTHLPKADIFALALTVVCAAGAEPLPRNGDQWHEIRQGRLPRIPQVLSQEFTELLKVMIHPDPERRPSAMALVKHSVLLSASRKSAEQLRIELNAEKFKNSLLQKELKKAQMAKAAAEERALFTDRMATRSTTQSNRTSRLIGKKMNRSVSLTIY

SMILES | IC50 [1] | IC50 (Wee1-like protein kinase) | IC50 [2] | IC50 [3]
Cc1c(O)cc(O)c(C)c1-c1cc2cnc(Nc3ccccc3)nc2n(C)c1=O | 110 nM | 1000 nM | – | –
Cn1c(=O)c(-c2c(Cl)cccc2Cl)cc2cnc(Nc3ccc(CCCC4N=NN=N4)cc3)nc21 | 25 nM | 69 nM | – | –
Cn1c(=O)c(-c2c(Cl)ccc(CO)c2Cl)cc2cnc(Nc3ccccc3)nc21 | 39 nM | 3500 nM | – | –
Cn1c(=O)c(-c2c(Cl)cccc2Cl)cc2cnc(Nc3ccc(CCCCC(N)=O)cc3)nc21 | 28 nM | 260 nM | – | –
COc1cc(C)c(-c2cc3cnc(Nc4ccccc4)nc3n(C)c2=O)c(C)c1 | 250 nM | > 50000 nM | – | –
COc1cccc(OC)c1-c1cc2cnc(Nc3ccccc3)nc2n(C)c1=O | 980 nM | > 50000 nM | – | –
CC(=O)Nc1ccc(Cl)c(-c2cc3cnc(Nc4ccccc4)nc3n(C)c2=O)c1Cl | 780 nM | > 50000 nM | – | –
Cc1cccc(C)c1-c1c(C)c2cnc(Nc3ccccc3)nc2n(C)c1=O | 15000 nM | 1200 nM | – | –
CCN(CC)CCOc1ccc(Nc2ncc3c(C)c(-c4c(C)cccc4C)c(=O)n(C)c3n2)cc1 | 360 nM | 540 nM | – | –
CCN(CC)CCOc1ccc(Nc2ncc3cc(-c4c(C)cccc4C)c(=O)n(C)c3n2)cc1 | 23 nM | 990 nM | – | –
Cn1c(=O)c(-c2c(Cl)ccc(O)c2Cl)cc2cnc(Nc3ccccc3)nc21 | 9 nM | 74 nM | – | –
Cn1c(=O)c(-c2c(Cl)cccc2Cl)cc2cnc(Nc3ccc(OCCCC(=O)O)cc3)nc21 | 4 nM | 86 nM | – | –
Cn1c(=O)c(-c2c(Cl)cc(O)cc2Cl)cc2cnc(Nc3ccc(OCCCC(=O)O)cc3)nc21 | 6 nM | 40 nM | – | –
CCN(CC)CCOc1ccc(Nc2ncc3cc(-c4c(Cl)ccc(O)c4Cl)c(=O)n(C)c3n2)cc1 | 6 nM | 150 nM | – | –
Cn1c(=O)c(-c2c(F)cccc2Cl)cc2cnc(Nc3ccccc3)nc21 | 43 nM | 2400 nM | – | –
Cn1c(=O)c(-c2c(Cl)cc(N)cc2Cl)cc2cnc(Nc3ccccc3)nc21 | 270 nM | 3700 nM | – | –

SMILES | IC50 [1] | IC50 (Wee1-like protein kinase) | IC50 [2] | IC50 [3]
Cn1c(=O)c(-c2c(Cl)ccc(C(=O)O)c2Cl)cc2cnc(Nc3ccccc3)nc21 | 280 nM | 3200 nM | – | –
COc1cc(OC)cc(-c2cc3cnc(N)nc3nc2NC(=O)NC(C)(C)C)c1 | – | – | > 50000 nM | –
COc1cc(OC)c(C)c(-c2cc3cnc(Nc4ccccc4)nc3n(C)c2=O)c1C | 39000 nM | 33000 nM | – | –
Cc1cccc(C)c1-c1cc2cnc(Nc3ccccc3)nc2n(C)c1=O | 14 nM | 990 nM | – | –
COc1cc(Cl)c(-c2cc3cnc(Nc4ccccc4)nc3n(C)c2=O)c(Cl)c1 | 6500 nM | > 50000 nM | – | –
Cn1c(=O)c(-c2c(Cl)c(O)cc(O)c2Cl)cc2cnc(Nc3ccccc3)nc21 | 11 nM | 140 nM | – | –
COc1cc(OC)c(Cl)c(-c2cc3cnc(Nc4ccccc4)nc3n(C)c2=O)c1Cl | > 50000 nM | > 50000 nM | – | –
Cn1c(=O)c(-c2c(Cl)cc(Cl)cc2Cl)cc2cnc(Nc3ccccc3)nc21 | 330 nM | 8600 nM | – | –
Cn1c(=O)c(-c2c(Cl)cccc2Cl)cc2cnc(Nc3ccc(CCCC(=O)OCCN4CCCCC4)cc3)nc21 | 11 nM | 142 nM | – | –
Cn1c(=O)c(-c2c(Cl)ccc(O)c2Cl)cc2cnc(Nc3ccc(OCCCC(=O)O)cc3)nc21 | 99 nM | 40 nM | – | –
Cn1c(=O)c(-c2c(Cl)cccc2Cl)cc2cnc(Nc3ccc(OCC(N)=O)cc3)nc21 | 14 nM | 250 nM | – | –
Cn1c(=O)c(-c2c(F)cccc2F)cc2cnc(Nc3ccccc3)nc21 | 66 nM | 9700 nM | – | –
COc1cc(OC)cc(-c2cc3cnc(NCCCN4CCOCC4)nc3nc2NC(=O)NC(C)(C)C)c1 | > 50000 nM | – | – | 30 nM
CCN(CC)CCOc1ccc(Nc2ncc3cc(-c4c(Cl)cc(O)cc4Cl)c(=O)n(C)c3n2)cc1 | 8 nM | 80 nM | – | –
CC(C)(C)NC(=O)Nc1nc2nc(N)ncc2cc1-c1c(Cl)cccc1Cl | – | – | 1100 nM | –
CCN(CC)CCOc1ccc(Nc2ncc3cc(-c4c(Cl)cccc4Cl)c(=O)n(C)c3n2)cc1 [PD-0166285] | – | – | 79000 nM | –

Further lines, with some results ahead:

IC50 [1] | IC50 (Wee1-like protein kinase) | SMILES | IC50 [2] | IC50 [3]
1500 nM | 3600 nM | CC(=O)Nc1cc(Cl)c(-c2cc3cnc(Nc4ccccc4)nc3n(C)c2=O)c(Cl)c1 | – | –
13 nM | 120 nM | Cn1c(=O)c(-c2c(Cl)cccc2Cl)cc2cnc(Nc3ccc(CC(N)=O)cc3)nc21 | – | –
7 nM | 124 nM | CN(C)CCOC(=O)CCCc1ccc(Nc2ncc3cc(-c4c(Cl)cccc4Cl)c(=O)n(C)c3n2)cc1 | – | –
130 nM | 8600 nM | Cn1c(=O)c(-c2c(Cl)ccc(C(N)=O)c2Cl)cc2cnc(Nc3ccccc3)nc21 | – | –
73 nM | 220 nM | Cn1c(=O)c(-c2c(Cl)cc(O)cc2Cl)cc2cnc(Nc3ccccc3)nc21 | – | –
58 nM | 4500 nM | Cc1cccc(Br)c1-c1cc2cnc(Nc3ccccc3)nc2n(C)c1=O | – | –
50 nM | 11000 nM | COc1cccc(O)c1-c1cc2cnc(Nc3ccccc3)nc2n(C)c1=O | – | –
540 nM | > 50000 nM | COc1ccc(Cl)c(-c2cc3cnc(Nc4ccccc4)nc3n(C)c2=O)c1Cl | – | –
12 nM | 1900 nM | Cc1cccc(Cl)c1-c1cc2cnc(Nc3ccccc3)nc2n(C)c1=O | – | –
> 50000 nM | 550 nM | CCN(CC)CCOc1ccc(Nc2ncc3c(C)c(-c4ccccc4Cl)c(=O)n(C)c3n2)cc1 | – | –
120 nM | 3400 nM | COc1cccc(Cl)c1-c1cc2cnc(Nc3ccccc3)nc2n(C)c1=O | – | –
90 nM | 2600 nM | Cn1c(=O)c(-c2c(Cl)ccc(N)c2Cl)cc2cnc(Nc3ccccc3)nc21 | – | –
62 nM | 31000 nM | Cn1c(=O)c(-c2c(Cl)ccc(CN)c2Cl)cc2cnc(Nc3ccccc3)nc21 | – | –
8100 nM | 41000 nM | Cn1c(=O)c(-c2c(C(F)(F)F)cccc2C(F)(F)F)cc2cnc(Nc3ccccc3)nc21 | – | –
24 nM | 2600 nM | Cn1c(=O)c(-c2c(Cl)cccc2Cl)cc2cnc(Nc3ccccc3)nc21 | – | –
> 50000 nM | > 50000 nM | Cc1c(-c2ccccc2)c(=O)n(C)c2nc(Nc3ccccc3)ncc12 | – | –
270 nM | > 50000 nM | Cn1c(=O)c(-c2c(Cl)ccc(Cl)c2Cl)cc2cnc(Nc3ccccc3)nc21 | – | –
720 nM | 27000 nM | Cn1c(=O)c(-c2c(O)cccc2O)cc2cnc(Nc3ccccc3)nc21 | – | –
2800 nM | 50000 nM | Cc1ccc(Cl)c(-c2cc3cnc(Nc4ccccc4)nc3n(C)c2=O)c1Cl | – | –
210 nM | > 50000 nM | Cn1c(=O)c(-c2c(Cl)cccc2C(F)(F)F)cc2cnc(Nc3ccccc3)nc21 | – | –
> 50000 nM | 410 nM | Cc1c(-c2ccccc2Cl)c(=O)n(C)c2nc(Nc3ccccc3)ncc12 | – | –
47 nM | 410 nM | Cn1c(=O)c(-c2c(Br)cccc2Br)cc2cnc(Nc3ccccc3)nc21 | – | –
4 nM | 95 nM | Cn1c(=O)c(-c2c(Cl)cccc2Cl)cc2cnc(Nc3ccc(CCCC(=O)OCCN4CCOCC4)cc3)nc21 | – | –
17 nM | 580 nM | Cc1cc(O)cc(C)c1-c1cc2cnc(Nc3ccccc3)nc2n(C)c1=O | – | –
30 nM | 190 nM | Cn1c(=O)c(-c2c(Cl)cccc2Cl)cc2cnc(Nc3ccc(CCC(N)=O)cc3)nc21 | – | –
22 nM | 1500 nM | Cn1c(=O)c(-c2c(O)cccc2Cl)cc2cnc(Nc3ccccc3)nc21 | – | –
9 nM | 90 nM | Cn1c(=O)c(-c2c(Cl)cccc2Cl)cc2cnc(Nc3ccc(CC(N)C(=O)O)cc3)nc21 (stereo not given) | – | –
